Data set [1] has as its target T1, Aβ1-40 (Homo sapiens, UniProt P05067).
T1 construct: Human Aβ peptides (Aβ1-40 and Aβ1-42) were synthesized; purchased W. M. Keck Foundation Biotechnology Resource Laboratory (Yale); Glabe Laboratory (UC Irvine); Multhaup Laboratory (Heidelberg); U.S. Peptide, Inc; Aldrich-Sigma; host or cells: chemical synthesis (solid-phase Fmoc)
In words: Inhibition of Zn2+-induced aggregation of Aβ measured by turbidity. The format is biochemical. The settings on record: Aβ1-40 10 μM, Zn2+ 25 μM, compound 25 μM, pH 7.4; FIG. 8. The source says: (§1) Human Aβ peptides (Aβ1-40 and Aβ1-42) were synthesized using solid-phase Fmoc chemistry at the W. M. Keck Foundation Biotechnology Resource Laboratory (Yale University, New Haven, Conn.); Glabe Laboratory (University of California, Irvine, Calif.); or Multhaup Laboratory (University of Heidelberg, Germany); or purchased from U.S. Peptide, Inc. (Rancho Cucamonga, Calif.); or Aldrich-Sigma (St. Louis, Mo.). The syntheses were confirmed by purification by reverse-phase HPLC, amino acid sequencing, and mass spectrometry. Synthetic Aβ peptides were dissolved in trifluoroethanol (30% in Milli-Q water (Millipore Corporation, Milford, Mass.)) or 20 mM HEPES (pH 8.5) at a concentration of […], centrifuged for 20 minutes at 10,000×g and the supernatant (stock Aβ) used for subsequent assays on the day of the experiment.
Turbidity measurements were performed as previously described (X. Huang et al., J. Biol. Chem. 1997, 272: 26464-26470). […] Subsequently, 20 μL aliquots of 10 mM of the bifunctional molecule to be tested or 10 mM Zn^2+ were added to the mixture alternatively, and following a 2 min. delay, a further four readings were taken at 1 min. intervals. After the final addition of the bifunctional molecule and turbidity reading, the mixtures were incubated for an additional 30 minutes before taking the last readings. […]

In data set [2] the test system is cortical amyloid accumulation. The note with it: Tg2576 transgenic mouse model for Alzheimer's disease; R. A. Cherny et al., Neuron 2001; cited from earlier work.
For data set [3], the target named is T1, Aβ1-40. In words: MRI signals from spherical phantoms in the presence of Aβ1-40. The format is binding. The note with it: PBS pH 7.4, FIG. 11.
Text: as §1
(§2) Different solution mixtures (containing a contrast imaging agent, Gd-XH1 or Gd-DTPA, in the presence or absence of Aβ1-40, Aβ1-42 or HSA in PBS, pH 7.4) were injected into 4.5-mL hollow spheres (made of polypropylene) and subjected to a 3-T magnetic scanner (Simens). Spin-Echo scanning mode was used and T1 signals were measured for each solution using 12 TR values (TE=5 ms), with R1=1/T1, and R1(obs)=R1(O)+R1 (Gd-XH1-Aβ1-40 or -Aβ1-42).

Another data set deals with HSA (Homo sapiens, UniProt P02768). Briefly: MRI signals from spherical phantoms in the presence of HSA. It is filed as binding. The note with it: PBS pH 7.4, FIG. 11. As for the experimental part: as §2
HSA, sequence (P02768 25-609): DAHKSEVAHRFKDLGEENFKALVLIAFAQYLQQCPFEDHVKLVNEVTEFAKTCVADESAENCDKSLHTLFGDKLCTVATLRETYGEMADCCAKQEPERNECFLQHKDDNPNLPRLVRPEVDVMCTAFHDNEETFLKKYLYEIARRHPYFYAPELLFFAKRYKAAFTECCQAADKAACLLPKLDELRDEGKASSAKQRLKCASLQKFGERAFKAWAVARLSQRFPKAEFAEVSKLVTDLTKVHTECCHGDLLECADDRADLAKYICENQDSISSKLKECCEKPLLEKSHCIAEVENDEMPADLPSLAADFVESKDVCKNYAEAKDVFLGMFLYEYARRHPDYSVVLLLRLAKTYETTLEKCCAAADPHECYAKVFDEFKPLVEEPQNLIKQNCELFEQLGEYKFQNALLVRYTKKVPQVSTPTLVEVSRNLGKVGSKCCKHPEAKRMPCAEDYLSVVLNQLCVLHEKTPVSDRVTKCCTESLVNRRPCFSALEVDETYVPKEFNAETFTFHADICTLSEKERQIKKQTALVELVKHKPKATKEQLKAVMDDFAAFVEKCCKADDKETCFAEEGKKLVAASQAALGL
The subject of the next data set is APP. In words: Determination of APP protein synthesis by SDS-PAGE in SH-SY5Y cells. The format is cell-based, human. The note with it: increasing XH1 concentration, 48 hours, FIG. 10A. How it is done: (§3) In SH-SY5Y human neuroblastoma cells, the capacity of XH1 to suppress APP synthesis was measured by SDS-PAGE. Control proteins (β-tubulin and/or two amyloid-precursor-like proteins, APLP1 and APLP2) were used to ensure target suppression specificity of the inventive bifunctional molecule.
(§4) SDS-PAGE. SH-SY5Y human neutoblastoma cells were harvested and washed with cold PBS three times and then lysed with M-PER™ mammalian protein extraction reagent (Pierce) mixed with protease inhibitor cocktails (Roche). The cell lysate was […] for 15 minutes at 13,000 rpm in a cold room, and the supernatants were BCA assayed for total protein concentrations. Protein blotting was performed on pre-casted NuPAGE™ 4-12% Bis-Tris Gel (Invitrogen) with equal protein loading (15 μg/well). It was run at 200 V for 45 minutes and transferred at 75 mA/gel for 95 minutes. The blots were probed by primary and secondary antibodies according to manufacturer's instructions and finally washed for 2-3 hours at 15 min. intervals. The blots were then developed using a chemiluminescent kit (Pierce).

The test system of another data set is APLP1. In words: Control protein synthesis by SDS-PAGE in SH-SY5Y cells. The format is cell-based, human. The settings on record: XH1 up to 10 μM, FIG. 10B. As for the experimental part: as §3, §4
The test system of another data set is APLP2. The description is as above. The format is cell-based, human. The settings on record: XH1 up to 10 μM, FIG. 10B. As for the experimental part: as §3, §4
Data set [4] relates to E17 rat cortical primary neurons. In words: Neurotoxicity in primary neuronal culture (LDH release and MTT assays). The format is cell-based. The settings on record: XH1 0, 1 or 10 μM, 48 hours after treatment; FIG. 9A. The source says: A primary neuronal culture was used to test the neurotoxicity of the parent bifunctional molecule, XH1. E17 rat cortical primary neurons were obtained from pathogen-free female Sprague-Dawley rats (purchased from Taconic Farms, Mass.) after 17 days of gestation, as described by G. J. Brewer and C. W. Cotman (in Brain Res. 1989, 494: 65-74). The protocol used allowed long-term culture of neurons at low density under precisely defined culture conditions. This protocol provided up to 90% neuronal culture. It was desirable that a small population of glial cells be co-cultured with the rat cortical primary neurons as these cells support neuronal survival. Cytosine arabinoside (1 μM) was used to control the growth of glial cells in the culture preparation. The neuronal population was checked regularly using neuron-specific enolase (and/or astroglia-specific S100β) immunohistochemistry.
E17 rat cortical primary neurons were grown under 95% […], 5% CO2, 85% humidity conditions, at 37° C. for 4 days in serum-free Neurobasal™ medium with B-27 supplement (Life Technologies, Inc.), 20 μM L-glutamate, 100 units/mL penicillin, […] streptomycin, and 2 mM L-glutamine. On the 5th day (treatment day), the medium was replaced with serum-free Neurobasal™ medium plus L-glutamine without B-27 supplement. […]
Background: Release of lactate dehydrogenase indicates damage to the cell membrane.

For data set [5], the system named is human SH-SY5Y neuroblastoma cells. In words: Neurotoxicity in neuroblastoma cells (LDH release assay). The settings on record: XH1 0, 1, 5 or 10 μM, 48 hours after treatment; FIG. 9B. It is filed as cell-based. How it is done:
The neurotoxicity of XH1 was also tested on human SH-SY5Y neuroblastoma cells. The SH-SY5Y cell line is commonly used to study neuritogenesis, differentiation, and tumorigenesis (D. Vu et al., Brain Res. Mol. Brain Res. 2003, 115: 93-103). SH-SY5Y cells were obtained from American Type Culture Collection and grown in Dulbecco's modified Eagle's medium supplemented with 10% fetal bovine serum (Gibco-BRL) and antibiotics.
Human SH-SY5Y neuroblastoma cells were incubated in the presence of XH1 (0, 1, 5 or 10 μM) (95% […], 5% CO2, 85% humidity, 37° C.) and cell viability was assessed 48 hours after treatment using the LDH release assay as described above.

A further data set relates to β-tubulin. In words: Control protein expression by SDS-PAGE in SH-SY5Y cells. The format is cell-based, human. The settings on record: same conditions as APP, FIG. 10A. How it is done:
as §3, §4

T1 sequence (P05067 672-711 limits assumed): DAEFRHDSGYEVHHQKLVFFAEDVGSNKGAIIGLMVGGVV

Take `O=C(O)CN(CCN(CC(=O)O)CC(=O)O)CCN(CC(=O)O)CC(=O)O` [DTPA, diethylene triaminepentaacetic acid, reference compound]: at Aβ1-40 [1], the “Zn2+-induced aggregation of Aβ1-40 in solution (turbidity at 400 nm)” value is “significantly decrease”.
For `Oc1c(I)cc(Cl)c2cccnc12` [Clioquinol], the cortical amyloid accumulation entry in [2] is on record as “marked inhibition”.
As to `O=C([O-])CN(CCN(CC(=O)[O-])CC(=O)O)CCN(CC(=O)[O-])CC(=O)O.[Gd+3]` [Gd-DTPA], the “effect on MRI signal of combination with Aβ” value on Aβ1-40 [3] is listed as “No effects”. The “effect on MRI signal of combination with HSA” value on HSA is on record as “No effects”.
As to `O=C(O)CN(CCN(CC(=O)O)CC(=O)Nc1ccc(-c2nc3ccccc3s2)cc1)CCN(CC(=O)O)CC(=O)Nc1ccc(-c2nc3ccccc3s2)cc1` [XH1], the APP synthesis result in the data set with APP is on record as “decrease in APP synthesis”. In the data set on APLP1, the APLP1 synthesis result was “did not affect”. In addition, in the data set on APLP2, the APLP2 synthesis entry is on record as “did not affect”. The “cell death (LDH release and MTT assays)” value in [4] is “does not induce any significant cell death”. The “Zn2+-induced aggregation of Aβ1-40 in solution (turbidity at 400 nm)” value on Aβ1-40 [1] is on record as “significantly decrease”. Besides, in data set [5], the “cell death (LDH release assay)” value is reported as “does not cause any significant cell death”. The β-tubulin expression entry in the data set with β-tubulin is reported as “no effects”.

These data come from US20060035946A1, “Amyloid-binding, metal-chelating agents” (The General Hospital Corporation, priority 2003, published 2006).
